Source: patent publication US20240212786A1, “METHOD OF DISCOVERING NOVEL ANTICANCER DRUG USING CO-ESSENTIALITY NETWORK, AND AN APPARATUS THEREOF” (POSTECH RESEARCH AND BUSINESS DEVELOPMENT FOUNDATION, priority 2022, published 2024)
Where a name gives a salt, the structure may show the parent alone.

Experiments:
[1] = system: cancer cell lines of COADREAD; settings: median over COADREAD cancer cell lines, PRISM secondary screen data; cited from earlier work
[2] = system: COADREAD differential gene expression; 15 large intestine cancer cell lines; assay: Reversal gene expression (RGE) effect from CMap L1000 profiles; type: cell-based
From the text: To estimate the efficacy of the drug by altering the gene expression to be a reversal of that in cancer conditions, the present inventors used the L1000 dataset from CMap[9]. From the L1000 dataset, the present inventors obtained 6,056 compounds with PubChem IDs and expression profiles for 978 genes directly measured in 15 cancer cell lines whose primary site was the large intestine: CL34, HCT116, HELA, HT115, HT29, LOVO, MDST8, NCIH508, NCIH716, RKO, SNU1040, SNUC5, SW480, SW620, and SW948. The present inventors initially computed the RGE effect between the differential gene expression of COADREAD (obtained via CREEDS[10], signature ID: dz552) and the compound's transcriptional profile using Zhang's connection score, that is, the absolute value of the anti-correlated, standardized ranked connection score. Since drugs have multiple transcriptional profiles for each cell line depending on the treatment dose and time, the present inventors calculated the max RGE effect for each cell line and used the median RGE effect across cell lines as a representative value. Finally, the performance of the network in predicting the drug's RGE effect was measured using the Spearman correlation coefficient between the TC score and the RGE effect of drugs that exist in both PanDrugs and CMap.

Huh7 cells = assay: MTS cell viability assay, Huh7; type: cell-based; settings: Homo sapiens, Huh-7, 72 h
Experimental: (§1) The human LIHC cell lines SNU398, SK-HEP-1, and Huh7 were obtained from the Korean Cell Line Bank (Scoul, Korea), and HepG2 cells were obtained from the American Type Culture Collection (Manassas, VA, USA). SNU398 and Huh7 were cultured in Roswell Park Memorial Institute (RPMI) 1640 medium (Welgene) supplemented with 10% fetal bovine serum (FBS, Merck), 100 IU/mL penicillin, and 100 μg/mL streptomycin (Welgene). SK-HEP-1 and HepG2 were maintained in Eagle's Minimum Essential medium (EMEM, Lonza) supplemented with 10% FBS. All cells were incubated at 37° C. in a humidified incubator with 5% CO2.
(§2) To assess cell viability, SNU398, SK-HEP-1, Huh7, and HepG2 cells were plated in 96-well plates at a density of 8×10^3 or 1×10^4 cells per well. […] After incubation for 72 h, cell viability was determined using the phenazine methosulfate (PMS)/3-(4,5-dimethylthiazol-2-yl)-5-(3-carboxymethoxyphenyl)-2-(4-sulfophenyl)-2H-tetrazolium, inner salt (MTS) assay using the Cell Titer 96 Aqueous Non-Radioactive Cell Proliferation Assay kit (Promega, Madison, WI, USA) according to the manufacturer's instructions. The absorbance at 490 nm was measured using a microplate reader (Multiskan SkyHigh Microplate Spectrophotometer, Thermo Scientific). IC50 values were calculated from dose-response curves using GraphPad Prism 9 (GraphPad Software).

HepG2 cells = assay: MTS cell viability assay, HepG2; type: cell-based; settings: Homo sapiens, 72 h
Experimental: as §1, §2

SK-HEP-1 cells = assay: MTS cell viability assay, SK-HEP-1; type: cell-based; settings: Homo sapiens, SK-HEP1, 72 h
Experimental: as §1, §2

SNU398 cells = assay: MTS cell viability assay, SNU398; type: cell-based; settings: Homo sapiens, SNU-398, 72 h
Experimental: as §1, §2

| SMILES | IC50 [1] | rank percentile of RGE effect ([2]; COADREAD) | RGE effect ([2]; median across cell lines of max RGE effect, Zhang's connection score, COADREAD signature) | IC50 (Huh7 cells) | IC50 (HepG2 cells) | IC50 (SK-HEP-1 cells) | IC50 (SNU398 cells) |
| --- | --- | --- | --- | --- | --- | --- | --- |
| Cn1c(=O)c(F)c(Nc2ccc(I)cc2F)c2c(=O)n(C[C@@H](O)CO)cnc21 [TAK-733] | 0.00103 µM | 91.18% | 0.123 |  |  |  |  |
| CC(C)C[C@H](NC(=O)CNC(=O)c1cc(Cl)ccc1Cl)B1OC(=O)C(CC(=O)O)(CC(=O)O)O1 [ixazomib citrate] |  |  |  | 0.137 µM | 0.197 µM | 0.27 µM | 0.746 µM |
